# Experimental data published in patent US8920788B2, “High-molecular weight conjugate of physiologically active substances” (priority 2008, dated 2014).
# Counter-ions that a name gives are not always drawn.
# Experiments:
# [1] = test system: Mouse colon cancer, Colon 26; assay: Antitumor activity, subcutaneously transplanted Colon 26 in mice; format: in vivo, female CDF1 mice; details: dose 15 mg/kg, once into tail vein
# Text: Mouse colon cancer, Colon 26, maintained by serial subcutaneous subculture in mice, was minced into about 2-mm cubic fragments, and the fragments were subcutaneously transplanted on the dorsal part of female CDF1 mice with a trocar. Eight days after the tumor transplantation, the high-molecular weight conjugate according to the present invention (Compound 2 and Compound 4) or a control drug (Comparative Compound 1 and doxorubicin hydrochloride) was each administered once into the mouse tail vein in a way such that each mouse received the same dose per body weight in terms of doxorubicin. Each compound was dissolved in a 5% liquid glucose for injection and used. After the administration, the major axis (L mm) and the minor axis (W mm) of the tumor were measured using a caliper, and the tumor volume was calculated by the formula (L×W^2)/2.
# [2] = Lethal dose of the control drug; format: in vivo; details: control drug of the antitumor test
# Procedure: The lethal dose of doxorubicin used as the control drug was 30 mg/kg, and therefore doxorubicin was administered at a dose of 15 mg/kg to perform the antitumor test.
structure (smiles),measurement,setting,value
"COc1cccc2c1C(=O)c1c(O)c3c(c(O)c1C2=O)C[C@@](O)(C(=O)CO)C[C@@H]3O[C@H]1C[C@H](N)[C@H](O)[C@H](C)O1 [Doxorubicin, doxorubicin hydrochloride]",relative tumor volume based on the tumor volume on the day of administration,[1]; day 0 after administration,1.00
same,relative tumor volume based on the tumor volume on the day of administration,[1]; day 3 after administration,1.79
same,relative tumor volume based on the tumor volume on the day of administration,[1]; day 7 after administration,3.89
same,relative tumor volume based on the tumor volume on the day of administration,[1]; day 10 after administration,5.27
same,relative tumor volume based on the tumor volume on the day of administration,[1]; day 14 after administration,12.17
same,lethal dose,[2],30 mg/kg
